Assay results reported in patent US20100297020A1, “PHOSPHORYLATED AND PHOSPHONATED PYRONE ANALOGS FOR THERAPEUTIC TREATMENT” (Limerick Biopharma, Inc., priority 2008, published 2010).
Read-outs that look alike come from different tables or passages of the source.

Legend:
AdenosineA1 [1] = target: T1, AdenosineA1 (Homo sapiens, UniProt P30542); assay: AdenosineA1 GTPγS functional assay; assay type: biochemical
T1 sequence (P30542 1-326): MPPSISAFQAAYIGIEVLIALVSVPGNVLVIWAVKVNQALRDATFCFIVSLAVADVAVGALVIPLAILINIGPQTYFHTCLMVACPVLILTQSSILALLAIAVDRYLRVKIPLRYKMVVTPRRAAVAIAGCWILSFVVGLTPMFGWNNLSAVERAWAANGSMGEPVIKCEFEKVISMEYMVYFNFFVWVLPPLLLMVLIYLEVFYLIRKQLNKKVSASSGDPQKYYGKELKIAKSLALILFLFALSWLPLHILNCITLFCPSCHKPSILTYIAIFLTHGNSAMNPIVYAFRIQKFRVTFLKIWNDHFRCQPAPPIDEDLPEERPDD
Experimental: (§1) The compound is additionally tested in AdenosineA1, AdrenergicA2A, DopamineD25, Histamine H1-, and μ-Opiate GTPγS functional assays using a concentration of 10 μM.
(§2) The compound may be additionally tested in AdenosineA1, AdrenergicA2A, DopamineD25, Histamine H1-, and μ-Opiate GTPγS functional assays using a concentration of 10 μM.
(§3) The compound can be additionally tested in AdenosineA1, AdrenergicA2A, DopamineD25, Histamine H1-, and μ-Opiate GTPγS functional assays using a concentration of 10 μM.

AdrenergicA2A = target: T2, AdrenergicA2A (Homo sapiens, UniProt P08913); assay: AdrenergicA2A GTPγS functional assay; assay type: biochemical
T2 sequence (P08913 1-465): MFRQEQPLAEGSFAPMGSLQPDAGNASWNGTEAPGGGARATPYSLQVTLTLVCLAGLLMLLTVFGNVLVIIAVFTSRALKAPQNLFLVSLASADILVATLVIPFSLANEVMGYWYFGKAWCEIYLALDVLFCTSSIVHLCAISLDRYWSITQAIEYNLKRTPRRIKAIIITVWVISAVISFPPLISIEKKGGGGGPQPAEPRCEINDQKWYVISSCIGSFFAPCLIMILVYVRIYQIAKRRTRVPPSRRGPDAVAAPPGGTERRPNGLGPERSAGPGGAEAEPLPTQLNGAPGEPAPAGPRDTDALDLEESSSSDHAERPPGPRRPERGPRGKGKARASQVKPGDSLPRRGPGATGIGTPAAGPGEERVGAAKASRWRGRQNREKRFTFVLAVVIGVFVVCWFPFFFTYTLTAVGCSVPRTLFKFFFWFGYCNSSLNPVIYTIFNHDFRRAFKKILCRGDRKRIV
Experimental: as §1, §2, §3

[2] = target: UDP Glucuronosyltransferase, UGT1A1 (Homo sapiens, UniProt P22309)
Chain of UDP Glucuronosyltransferase, UGT1A1 (P22309 26-533): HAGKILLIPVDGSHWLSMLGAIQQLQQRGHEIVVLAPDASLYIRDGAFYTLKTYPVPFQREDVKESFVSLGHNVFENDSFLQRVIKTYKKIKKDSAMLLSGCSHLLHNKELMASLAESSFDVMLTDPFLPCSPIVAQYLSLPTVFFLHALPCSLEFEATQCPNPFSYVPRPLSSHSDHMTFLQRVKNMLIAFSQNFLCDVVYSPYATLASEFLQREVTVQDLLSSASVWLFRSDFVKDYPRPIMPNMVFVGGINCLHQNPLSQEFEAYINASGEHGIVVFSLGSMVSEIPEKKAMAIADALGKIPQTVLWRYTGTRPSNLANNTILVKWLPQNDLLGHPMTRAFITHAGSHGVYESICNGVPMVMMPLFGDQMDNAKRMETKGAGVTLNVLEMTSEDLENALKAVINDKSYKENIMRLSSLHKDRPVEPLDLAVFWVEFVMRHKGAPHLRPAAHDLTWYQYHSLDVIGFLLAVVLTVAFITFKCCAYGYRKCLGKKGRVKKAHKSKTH

[3] = system: Transporter, Monoamine rabbit; assay: Secondary toxicity screen: Transporter, Monoamine; assay type: binding
[4] = target: Peripheral Benzodiazepine Receptor (PBR) (Homo sapiens, UniProt P30536); assay: Secondary toxicity screen: Peripheral Benzodiazepine Receptor; assay type: binding
Chain of Peripheral Benzodiazepine Receptor (PBR) (P30536 whole entry, species assumed): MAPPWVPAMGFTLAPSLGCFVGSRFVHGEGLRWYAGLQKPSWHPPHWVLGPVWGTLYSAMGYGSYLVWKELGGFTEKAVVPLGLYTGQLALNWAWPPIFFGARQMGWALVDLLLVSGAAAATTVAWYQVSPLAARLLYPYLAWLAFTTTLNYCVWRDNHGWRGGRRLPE

[5] = target: Protein Tyrosine Kinase, ZA70 (ZAP-70) (Homo sapiens, UniProt P43403); assay: Secondary toxicity screen: ZAP-70; assay type: biochemical
Chain of Protein Tyrosine Kinase, ZA70 (ZAP-70) (P43403 whole entry, species assumed): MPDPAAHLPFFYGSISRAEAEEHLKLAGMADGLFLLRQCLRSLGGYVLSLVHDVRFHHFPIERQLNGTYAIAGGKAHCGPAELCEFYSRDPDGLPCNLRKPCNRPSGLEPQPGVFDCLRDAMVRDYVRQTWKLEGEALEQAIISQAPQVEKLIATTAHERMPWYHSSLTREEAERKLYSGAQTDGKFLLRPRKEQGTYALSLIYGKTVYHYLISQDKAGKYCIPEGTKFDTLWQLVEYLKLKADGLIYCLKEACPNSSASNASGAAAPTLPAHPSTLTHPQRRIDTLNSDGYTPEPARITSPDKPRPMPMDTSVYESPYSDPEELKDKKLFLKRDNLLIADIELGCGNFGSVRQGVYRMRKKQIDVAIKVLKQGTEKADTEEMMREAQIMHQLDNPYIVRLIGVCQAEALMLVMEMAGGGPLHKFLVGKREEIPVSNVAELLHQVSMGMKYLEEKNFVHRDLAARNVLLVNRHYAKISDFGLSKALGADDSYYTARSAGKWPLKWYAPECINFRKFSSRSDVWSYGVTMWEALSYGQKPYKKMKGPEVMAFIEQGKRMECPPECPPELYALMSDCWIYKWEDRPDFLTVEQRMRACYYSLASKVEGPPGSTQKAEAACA

Adrenergic α2A = Adrenergic α2A (Homo sapiens, UniProt P08913); assay: Secondary toxicity screen: Adrenergic α2A; assay type: binding
[6] = target: Protein Tyrosine Kinase, Insulin Receptor (Homo sapiens, UniProt P06213); assay: Secondary toxicity screen: Insulin Receptor kinase; assay type: biochemical
Chain of Protein Tyrosine Kinase, Insulin Receptor (P06213 28-1382): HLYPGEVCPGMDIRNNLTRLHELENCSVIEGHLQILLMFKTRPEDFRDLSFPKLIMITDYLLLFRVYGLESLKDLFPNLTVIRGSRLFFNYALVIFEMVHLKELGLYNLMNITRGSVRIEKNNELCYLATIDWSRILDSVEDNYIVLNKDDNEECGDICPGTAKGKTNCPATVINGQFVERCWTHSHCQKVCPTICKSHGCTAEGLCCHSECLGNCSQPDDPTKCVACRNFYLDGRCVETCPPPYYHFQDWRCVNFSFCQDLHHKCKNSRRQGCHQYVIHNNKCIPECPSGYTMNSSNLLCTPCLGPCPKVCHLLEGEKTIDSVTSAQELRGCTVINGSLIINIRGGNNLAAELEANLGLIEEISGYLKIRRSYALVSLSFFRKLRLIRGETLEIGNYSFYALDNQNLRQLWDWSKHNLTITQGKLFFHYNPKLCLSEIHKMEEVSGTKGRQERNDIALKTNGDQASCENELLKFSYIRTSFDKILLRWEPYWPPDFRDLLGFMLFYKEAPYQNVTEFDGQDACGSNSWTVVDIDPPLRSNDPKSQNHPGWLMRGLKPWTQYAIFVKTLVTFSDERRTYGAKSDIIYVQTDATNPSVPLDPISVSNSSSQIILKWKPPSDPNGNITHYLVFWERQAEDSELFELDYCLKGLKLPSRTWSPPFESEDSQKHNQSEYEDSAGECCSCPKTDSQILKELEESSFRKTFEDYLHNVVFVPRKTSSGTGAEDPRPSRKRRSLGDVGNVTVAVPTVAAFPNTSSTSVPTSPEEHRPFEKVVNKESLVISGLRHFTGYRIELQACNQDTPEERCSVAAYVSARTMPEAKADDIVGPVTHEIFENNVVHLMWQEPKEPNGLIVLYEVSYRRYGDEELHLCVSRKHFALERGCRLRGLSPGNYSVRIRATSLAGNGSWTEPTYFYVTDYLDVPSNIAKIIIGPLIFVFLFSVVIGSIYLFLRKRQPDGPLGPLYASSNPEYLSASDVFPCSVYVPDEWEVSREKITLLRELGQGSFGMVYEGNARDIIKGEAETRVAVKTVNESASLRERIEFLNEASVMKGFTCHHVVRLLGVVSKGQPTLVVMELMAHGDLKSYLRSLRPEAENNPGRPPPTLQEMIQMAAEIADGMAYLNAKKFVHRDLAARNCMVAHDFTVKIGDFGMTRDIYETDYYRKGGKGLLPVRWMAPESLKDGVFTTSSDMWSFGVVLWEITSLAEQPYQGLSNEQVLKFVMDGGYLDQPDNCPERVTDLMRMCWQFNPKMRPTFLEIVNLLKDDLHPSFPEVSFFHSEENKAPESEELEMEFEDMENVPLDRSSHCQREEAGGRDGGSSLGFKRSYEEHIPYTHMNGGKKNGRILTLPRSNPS

AdenosineA1 [7] = target: T1, AdenosineA1; assay: Secondary toxicity screen: Adenosine A1; assay type: binding
Dopamine D47 = assay: Secondary toxicity screen: Dopamine D47; assay type: binding
[8] = system: ATPase, Na+/K+, Heart, Pig; assay: Secondary toxicity screen (MDS Pharma Services): ATPase, Na+/K+; assay type: biochemical
[9] = target: Nitric Oxide Synthase, Endothelial (eNOS) (Homo sapiens, UniProt P29474); assay: Secondary toxicity screen: eNOS; assay type: biochemical
[10] = target: Protein Tyrosine Kinase, FGFR1 (Homo sapiens, UniProt P11362); assay: Secondary toxicity screen: FGFR1; assay type: biochemical
Chain of Protein Tyrosine Kinase, FGFR1 (P11362 22-822): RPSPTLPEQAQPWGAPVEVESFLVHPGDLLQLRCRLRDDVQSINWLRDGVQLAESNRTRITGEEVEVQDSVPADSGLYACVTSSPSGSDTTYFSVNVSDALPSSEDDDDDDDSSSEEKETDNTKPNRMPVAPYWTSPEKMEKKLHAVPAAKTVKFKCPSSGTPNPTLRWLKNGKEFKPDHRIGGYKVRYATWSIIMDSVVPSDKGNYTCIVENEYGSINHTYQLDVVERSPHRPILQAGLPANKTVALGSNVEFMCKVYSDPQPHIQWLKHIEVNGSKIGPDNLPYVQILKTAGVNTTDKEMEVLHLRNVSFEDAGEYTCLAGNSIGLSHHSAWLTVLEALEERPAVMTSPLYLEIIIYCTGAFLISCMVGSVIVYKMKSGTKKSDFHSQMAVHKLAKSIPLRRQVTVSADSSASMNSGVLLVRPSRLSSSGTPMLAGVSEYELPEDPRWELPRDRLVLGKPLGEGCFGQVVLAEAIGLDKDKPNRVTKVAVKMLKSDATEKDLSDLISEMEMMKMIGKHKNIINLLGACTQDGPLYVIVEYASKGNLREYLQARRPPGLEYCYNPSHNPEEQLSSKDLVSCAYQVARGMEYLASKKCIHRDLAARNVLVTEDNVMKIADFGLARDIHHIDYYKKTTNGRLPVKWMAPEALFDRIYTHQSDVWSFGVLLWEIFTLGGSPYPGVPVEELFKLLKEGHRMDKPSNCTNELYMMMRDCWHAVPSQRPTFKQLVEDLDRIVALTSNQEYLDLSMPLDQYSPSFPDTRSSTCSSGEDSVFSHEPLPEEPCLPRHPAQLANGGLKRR

[11] = target: Protein Tyrosine Kinase, FGFR2 (Homo sapiens, UniProt P21802); assay: Secondary toxicity screen: FGFR2; assay type: biochemical
Chain of Protein Tyrosine Kinase, FGFR2 (P21802 22-821): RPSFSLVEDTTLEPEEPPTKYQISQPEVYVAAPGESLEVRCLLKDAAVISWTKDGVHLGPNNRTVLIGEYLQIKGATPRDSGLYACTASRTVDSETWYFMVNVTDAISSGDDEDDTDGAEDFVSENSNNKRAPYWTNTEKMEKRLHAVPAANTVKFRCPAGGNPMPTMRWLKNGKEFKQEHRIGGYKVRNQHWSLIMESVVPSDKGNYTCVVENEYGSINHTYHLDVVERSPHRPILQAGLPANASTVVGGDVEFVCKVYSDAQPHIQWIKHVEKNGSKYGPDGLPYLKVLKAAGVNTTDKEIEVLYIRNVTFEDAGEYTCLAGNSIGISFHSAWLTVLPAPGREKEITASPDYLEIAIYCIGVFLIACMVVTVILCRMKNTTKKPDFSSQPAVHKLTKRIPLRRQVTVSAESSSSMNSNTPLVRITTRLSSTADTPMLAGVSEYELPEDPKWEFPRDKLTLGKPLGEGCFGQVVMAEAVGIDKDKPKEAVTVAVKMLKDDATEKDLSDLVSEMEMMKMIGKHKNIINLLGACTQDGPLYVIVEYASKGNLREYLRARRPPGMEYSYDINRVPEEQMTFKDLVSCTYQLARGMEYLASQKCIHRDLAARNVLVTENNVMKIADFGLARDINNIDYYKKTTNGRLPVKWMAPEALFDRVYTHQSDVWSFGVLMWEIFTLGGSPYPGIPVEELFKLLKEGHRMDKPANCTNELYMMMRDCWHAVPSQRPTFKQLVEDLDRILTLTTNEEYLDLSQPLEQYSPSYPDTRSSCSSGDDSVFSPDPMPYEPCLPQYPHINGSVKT

Protein Tyrosine Kinase, = assay: Secondary toxicity screen: Protein Tyrosine Kinase (name not given); assay type: biochemical
[12] = target: Serotonin (5-Hydroxytryptamine) 5-HT1A (Homo sapiens, UniProt P08908); assay: Secondary toxicity screen: 5-HT1A; assay type: binding
Chain of Serotonin (5-Hydroxytryptamine) 5-HT1A (P08908 whole entry): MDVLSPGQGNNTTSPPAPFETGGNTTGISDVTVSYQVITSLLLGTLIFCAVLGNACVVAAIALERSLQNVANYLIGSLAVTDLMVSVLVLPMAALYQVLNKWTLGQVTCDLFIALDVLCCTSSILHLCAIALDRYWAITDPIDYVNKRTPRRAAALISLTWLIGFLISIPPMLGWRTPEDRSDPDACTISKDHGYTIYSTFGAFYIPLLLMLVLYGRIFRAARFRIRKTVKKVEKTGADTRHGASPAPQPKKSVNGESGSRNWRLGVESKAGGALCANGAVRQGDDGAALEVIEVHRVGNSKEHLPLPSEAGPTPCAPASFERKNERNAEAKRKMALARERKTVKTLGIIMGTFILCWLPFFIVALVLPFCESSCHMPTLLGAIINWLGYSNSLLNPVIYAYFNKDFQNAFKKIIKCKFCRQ

[13] = pH 8
Experimental: Quercetin-3′-O-phosphate is dissolved in water at about pH 8.
Fisetin-3′-O-phosphate is dissolved in water at about pH 8.
Quercetin-3′-O-methylphosphonate (Compound 2) is dissolved in water at about pH 8.

[14] = target: UGT1A1 (UDP glucuronosyltransferase) (Homo sapiens, UniProt P22309); assay: in vitro
Chain of UGT1A1 (UDP glucuronosyltransferase) (P22309 26-533): as the sequence (P22309 26-533) above

[15] = 10 uM, read-out: percent inhibition at 10 μM

SMILES: O=c1c(O)c(-c2ccc(O)c(OP(=O)(O)O)c2)oc2cc(O)ccc12 [fisetin-3′-O-phosphate, Fisetin-3′-O-phosphate]
- antagonist activity in the AdenosineA1 assay (AdenosineA1 [1]): 48%
- inhibition in the AdrenergicA2A assay (AdrenergicA2A): marked negative inhibition
- percent inhibition at 10 μM [2]: 52%
- percent inhibition at 10 μM [3]: 68%
- percent inhibition at 10 μM [4]: 53%
- percent inhibition at 10 μM [5]: 74%
- percent inhibition at 10 μM (Adrenergic α2A): 57%
- percent inhibition at 10 μM [6]: 91%
- percent inhibition at 10 μM (AdenosineA1 [7]): 50%
- percent inhibition at 10 μM (Dopamine D47): 51%
- percent inhibition at 10 μM [8]: 65%
- percent inhibition at 10 μM [9]: 72%
- percent inhibition at 10 μM [10]: 96%
- percent inhibition at 10 μM [11]: 94%
- percent inhibition at 10 μM (Protein Tyrosine Kinase,): 82%
- percent inhibition at 10 μM [12]: 62%
- degradation seen by NMR and HPLC [13]: no degradation

SMILES: O=c1c(O)c(-c2ccc(O)c(OP(=O)(O)O)c2)oc2cc(O)cc(O)c12 [quercetin-3′-O-phosphate]
- antagonist activity in the AdenosineA1 assay (AdenosineA1 [1]; 10 μM): 48%
- inhibition at 10 µM [14]: 52%
- inhibition in the AdrenergicA2A assay (AdrenergicA2A; 10 μM): marked negative inhibition
- percent inhibition at 10 μM ([3]; 10 uM): 68%
- inhibition at 10 µM [4, 15]: 53%
- inhibition at 10 µM [5, 15]: 74%
- inhibition at 10 µM (Adrenergic α2A; [15]): 57%
- inhibition at 10 µM [6, 15]: 91%
- inhibition at 10 µM (AdenosineA1 [7]; [15]): 50%
- percent inhibition at 10 μM (Dopamine D47; 10 uM): 51%
- percent inhibition at 10 μM ([8]; 10 uM): 65%
- inhibition at 10 µM [9, 15]: 72%
- inhibition at 10 µM [10, 15]: 96%
- inhibition at 10 µM [11, 15]: 94%
- percent inhibition at 10 μM (Protein Tyrosine Kinase,; 10 uM): 82%
- inhibition at 10 µM [12, 15]: 62%
- degradation seen by NMR and HPLC [13]: no degradation
